The target of the experiment is T1, PctA dCache_1 domain (Pseudomonas aeruginosa, UniProt G3XD24).
T1 sequence (G3XD24 32-276 limits assumed): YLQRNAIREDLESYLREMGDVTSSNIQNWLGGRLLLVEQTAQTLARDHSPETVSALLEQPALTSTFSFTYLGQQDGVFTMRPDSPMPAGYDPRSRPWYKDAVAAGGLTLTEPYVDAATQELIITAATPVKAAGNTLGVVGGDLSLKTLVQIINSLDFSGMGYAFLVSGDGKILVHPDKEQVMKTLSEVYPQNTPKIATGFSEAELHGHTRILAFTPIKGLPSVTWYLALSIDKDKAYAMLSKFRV
Description: isothermal titration calorimetry. It is filed as binding.

Here are results for one molecule from article PMC8915833 (Proceedings of the National Academy of Sciences of the …, 2022).

Consider `C[C@H](N)C(=O)O` [L-Ala], for which the KD result is “Isothermal titration calorimetry study of L-Ala binding to the wild type and the mutated”.
